This note sets out measurements from PMC11814485, “Screening of homing and tissue-penetrating peptides by microdialysis and in vivo phage display” (Life Science Alliance, 2025).

One assay relates to day 7 skin wound. Briefly: In vivo playoff of custom-made phage library with microdialysis recovery and HTS in rat skin wound model. The settings on record: for Liver Count: HTS reads in liver after 1 h circulation and perfusion; for Wound without probe Count: HTS reads in wound tissue after 1 h circulation and perfusion; for Normal skin microdialysate Count / Wound microdialysate Count: HTS reads; for Normal skin microdialysate Count: probe under normal skin; for Normal skin microdialysate Count / Wound microdialysate Count / Wound microdialysate %: dialysate collected 1 h; for Wound microdialysate Count / Wound microdialysate %: rat; for Wound microdialysate Count: i.v. tail vein, 3-MDa probe under day 7 wound; for Liver %: share of HTS reads in liver after 1 h circulation and perfusion; for Wound without probe %: share of HTS reads in wound tissue after 1 h circulation and perfusion; for Wound microdialysate %: share of HTS reads, i.v. The protocol:
We next tested the applicability of the microdialysis-based system for extravascular phage recovery in the rat wound model. In the initial proof-of-concept studies, we used an in vivo “playoff” approach that allows parallel auditioning of the performance of peptide phages in low-complexity mixtures ([Pleiko et al, 2021]). Wound-bearing rats were dosed with a pool of phages displaying peptides known to home to angiogenic vessels and penetrate tissues, CAR (amino acid sequence CARSKNKDC) and iRGD (CRGDKGPDC). The CAR peptide uses a heparan sulfate proteoglycan (syndecan-4)–dependent pathway for the wound homing and penetration ([Järvinen & Ruoslahti, 2007], [2010]; [Maldonado et al, 2023]), whereas iRGD first homes to αv integrins in angiogenic vasculature followed by proteolytic cleavage of the peptide and binging to neuropilin-1, which activates a trans-tissue transport pathway, the CendR pathway ([Sugahara et al, 2009], [2010]; [Teesalu et al, 2009]). […] Peptides lacking tissue-penetrating properties were included as controls. The CRK (CRKDKC) peptide homes to angiogenic blood vessels, but remains bound to the blood vessels ([Järvinen & Ruoslahti, 2007]; [Agemy et al, 2010]). The test pool also included peptide phage clones identified during an in vivo phage display screen for peptides homing to skin wounds but not selected for further analysis at that time ([Järvinen & Ruoslahti, 2007]). As negative controls, we included phages from a naïve peptide phage library that display random peptides.
Microdialysis probes with 3-MDa cutoff were implanted under the center of a day 7 skin wound (peak of angiogenesis) in rats, or under normal skin (Fig S2). Care was taken not to rupture blood vessels during the probe insertion, and a proper probe location was confirmed at the end of the experiment. After insertion, the microdialysis device was run for 45 min to allow the local flow inside the catheter to be established (manufacturer’s recommendation) ([Joukhadar & Müller, 2005]; [Chaurasia et al, 2007]), followed by intravenous injection of the phage cocktail, and sampling of wound and control dialysates for 60 min. Subsequently, the animals were perfused to remove free phages, and wounds and control organs were collected for further analysis. […] No phages (including CAR and iRGD phages) were detected in the dialysates placed in the intact normal skin (Table 1).
The custom-made phage library for the in vivo validation was cloned on T7 415-1 backbone, grown in BL21 E. coli strain, and filter-sterilized. The phages were either cloned as described previously or picked randomly from a phage library ([Järvinen & Ruoslahti, 2007]; [Teesalu et al, 2009]; [Pemmari et al, 2020a]). Each phage clone was sequenced. The custom-made library was made by mixing an equal amount of each phage (titer 5 × 10^9).
(§1) For the in vivo microdialysis, CMA 402 Syringe Pump with Hamilton syringes was used to push and the Harvard P70 peristaltic pump (Harvard Apparatus) to pull the CMA perfusion fluid (CMA Microdialysis AB) and dialysate. Each of the CMA 402 two outputs was connected to the inlet spike of the CMA 12 custom-made 3-MDa probe (CMA Microdialysis AB) via CMA FEP tubing (CMA Microdialysis AB), and the outlet spike of the CMA 12 probe was further connected to Harvard P70 peristaltic pump and further to CMA Probe Shaft Clip (CMA Microdialysis AB) via CMA connector tubing (CMA Microdialysis AB). From the CMA Probe Shaft Clip, the dialysate was pumped into CMA sample tubes (CMA Microdialysis AB). Harvard 0.19-mm-diameter tubing (Harvard Apparatus) and Harvard 3 collar 1.52-mm tubing (Harvard Apparatus) were used with the Harvard P70 peristaltic pump. In addition, CMA tubing adaptors (CMA Microdialysis AB) were used for connecting tubes to syringes and probes. The system was flushed with 70% ethanol before any use.
Male Wistar rats were used for the in vivo validation experiment and the library screen. The rats were 27 wk old and weighed 490 g. […]

The subject of a further assay is day 7 skin wounds. Briefly: In vivo phage display screen of naive CX7C T7 library using microdialysis and HTS. Also noted: species or system rat. The settings on record: for Total counts / First hour (counts) / Second hour (counts): wound microdialysate; for Total counts: first 2 h; for First hour (counts): first hour after library injection, rat 7-d-old wound; for First hour (counts) / Second hour (counts): Ion Torrent HTS; for Second hour (counts): second hour after library injection.
Source text: We next adopted microdialysis-based biopanning to identify new wound-penetrating peptides. We used a CX7^trinucC peptide T7 phage library (diversity 3.9 × 10^8) in which random amino acids are encoded by equally represented trinucleotides to prevent codon bias ([Pleiko et al, 2021]). The library was cloned into the genome of the T7 bacteriophage engineered for longer circulation half-life and reduced liver uptake ([Hodyra-Stefaniak et al, 2019]). For biopanning, 3.9 × 10^10 phages (∼100 copies of each phage clone) displaying the C7X^trinucC library were injected in the tail vein of rats with day 7 skin wounds. Microdialysates were collected from probes placed in wounds or normal skin (Table S1). Most of the phage recovery at the microdialysis probe happened during the first 2 h after library dosing. The wound dialysates yielded almost all phages introduced into the two microdialysis probes, only one phage clone was recovered from normal skin dialysate (Table S1). We observed that most of the peptide phage clones appeared in the microdialysate during the first 2 h after phage dosing (Table S1). To obtain representative tissue biodistribution of phage clones in relation to dialysates, the skin wound–bearing rats with no inserted dialysis probes were dosed with the naïve CX7^trinucC peptide library, followed by 30-min circulation, perfusion, collection of organs, and analysis of peptide landscapes. The two dialysates collected during the first 2 h were subjected to HTS (Table S2). Whole tissue samples from the wound with and without the probe (1 + 5 wounds) at 30 min and 5 h, as well as control samples from 14 different tissues (2 × 14) and from normal skin (1 x with and 2 x without probe), and two serum samples at the time of euthanasia (30 min and 5 h after the library injection) were subjected to HTS. […] However, the wound microdialysates contained 13 enriched peptide sequences (Table 2). […] A BLAST analysis on candidate peptide sequences was used to scan for sequence homologies with proteins related to angiogenesis, endocytosis, and wound healing (Table S3).
The phage library used in the in vivo screen with the microdialysis probe was in the 10-3b T7 backbone (5–15 peptide copies per phage), grown in BLT5403 E. coli strain, CsCl-purified, dialyzed in PBS, and filter-sterilized. The library was constructed via trinucleotide synthesis to prevent bias in the amount of different amino acids ([Kayushin et al, 1996]). The diversity of the library was 1 × 10^9 and the titer 5 × 10^10 per ml.
as §1
Male Wistar rats were used for the in vivo validation experiment and the library screen. The rats were 27 wk old and weighed 490 g. Two full-thickness circular wounds were created on a shaved and disinfected skin with a 12-mm-diameter biopsy punch and scissors under sevoflurane anesthesia (Sevoflurane Baxter, Baxter SA) and carprofen analgesia ([…]; Norocarp, Norbrook Laboratories). […]

As to “CAELNDGLC [T7 phage clone of the custom-made library]”, in the assay with day 7 skin wound, the “Liver Count” value was 1,851, the “Wound without probe Count” value is 1,082, the “Normal skin microdialysate Count” value was 0 and the “Wound microdialysate Count” value turned out to be 0. Further, in the assay on day 7 skin wound, the Liver % was found to be 0.70%, the “Wound without probe %” value stood at 4.98% and the Wound microdialysate % turned out to be 0%.
Regarding “CARSKNKDC [CARSKNKDC (CAR), T7 phage clone displaying known wound-homing, tissue-penetrating peptide CAR]”, in the assay on day 7 skin wound, the “Liver Count” value was 29,894, the “Wound without probe Count” value is 1,614, the “Normal skin microdialysate Count” value came to 0 and the “Wound microdialysate Count” value is on record as 17,713. For the same substance, in the assay on day 7 skin wound, the Liver % came to 11.34%, the “Wound without probe %” value worked out at 7.43% and the Wound microdialysate % was 94.74%.
As for CDDYQQISC, in the assay on day 7 skin wounds, the Total counts came out at 21 counts, the “First hour (counts)” value is recorded as 10 counts and the “Second hour (counts)” value was 11 counts.
As for “CERESTKIC [T7 phage clone of the custom-made library]”, in the assay with day 7 skin wound, the “Liver Count” value is on record as 93,283, the “Wound without probe Count” value is recorded as 3,133, the “Normal skin microdialysate Count” value came out at 0 and the “Wound microdialysate Count” value is given as 0. In the assay with day 7 skin wound, the Liver % stood at 35.39%, the “Wound without probe %” value is 14.42% and the Wound microdialysate % stood at 0%.
Turning to CFCQLMYQC, in the assay on day 7 skin wounds, the Total counts was 13 counts, the “First hour (counts)” value is listed as 8 counts and the “Second hour (counts)” value is 5 counts.
In the case of CKKNEINNC, the “detection in skin wound tissue samples” value in the assay with day 7 skin wounds (HTS of whole wound tissue samples) is “found in one skin wound sample”. In the assay on day 7 skin wounds, the Total counts stood at 16 counts, the “First hour (counts)” value is recorded as 6 counts and the “Second hour (counts)” value came to 10 counts.
Turning to CKMLYEYHC, in the assay on day 7 skin wounds, the Total counts is 18 counts, the “First hour (counts)” value came to 1 counts and the “Second hour (counts)” value is given as 17 counts.
As to “CKSVKNREC [T7 phage clone of the custom-made library]”, in the assay on day 7 skin wound, the “Liver Count” value is given as 108,554, the “Wound without probe Count” value was 14,429, the “Normal skin microdialysate Count” value was 2,473 and the “Wound microdialysate Count” value came to 0. In addition, in the assay with day 7 skin wound, the Liver % worked out at 41.18%, the “Wound without probe %” value stood at 66.39% and the Wound microdialysate % is recorded as 0%.
For the substance “CLLGKNNSC [T7 phage clone of the custom-made library]”, in the assay on day 7 skin wound, the “Liver Count” value was found to be 785, the “Wound without probe Count” value amounted to 0, the “Normal skin microdialysate Count” value was found to be 0 and the “Wound microdialysate Count” value was 0. Further, in the assay with day 7 skin wound, the Liver % amounted to 0.30%, the “Wound without probe %” value came to 0% and the Wound microdialysate % amounted to 0%.
With CLLIYNWSC, in the assay on day 7 skin wounds, the Total counts is 17 counts, the “First hour (counts)” value turned out to be 14 counts and the “Second hour (counts)” value turned out to be 3 counts.
Turning to CLSQTYRIC, in the assay on day 7 skin wounds, the Total counts is recorded as 21 counts, the “First hour (counts)” value is 19 counts and the “Second hour (counts)” value turned out to be 2 counts.
As for CLTVLSEQC, in the assay with day 7 skin wounds, the Total counts is on record as 15 counts, the “First hour (counts)” value worked out at 8 counts and the “Second hour (counts)” value amounted to 7 counts.
Regarding “CNGSALPVC [T7 phage clone of the custom-made library]”, in the assay with day 7 skin wound, the “Liver Count” value is listed as 3,300, the “Wound without probe Count” value stood at 0, the “Normal skin microdialysate Count” value stood at 0 and the “Wound microdialysate Count” value is 0. Moreover, in the assay with day 7 skin wound, the Liver % is on record as 1.25%, the “Wound without probe %” value is 0% and the Wound microdialysate % was 0%.
For the substance CNYLVEKNC, in the assay with day 7 skin wounds, the Total counts is listed as 23 counts, the “First hour (counts)” value turned out to be 14 counts and the “Second hour (counts)” value stood at 9 counts.
The corresponding values for CPKKHHLDC are 42 counts, 19 counts and 23 counts.
As for “CRGDKGPDC [CRGDKGPDC (iRGD), T7 phage clone displaying tissue-penetrating homing peptide iRGD]”, in the assay with day 7 skin wound, the “Liver Count” value was 8,709, the “Wound without probe Count” value is recorded as 1,172, the “Normal skin microdialysate Count” value is 0 and the “Wound microdialysate Count” value was found to be 984. Further, in the assay with day 7 skin wound, the Liver % worked out at 3.30%, the “Wound without probe %” value is given as 5.39% and the Wound microdialysate % is 5.26%.
Consider “CRKDKC [CRKDKC (CRK), T7 phage clone displaying CRK peptide, homes to angiogenic vessels, lacks tissue penetration]”, for which, in the assay on day 7 skin wound, the “Liver Count” value was 17,235, the “Wound without probe Count” value is on record as 303, the “Normal skin microdialysate Count” value turned out to be 0 and the “Wound microdialysate Count” value is recorded as 0. In addition, in the assay with day 7 skin wound, the Liver % stood at 6.54%, the “Wound without probe %” value worked out at 1.39% and the Wound microdialysate % is recorded as 0%.
With CRMKFYSEYC, in the assay with day 7 skin wounds, the Total counts amounted to 11 counts, the “First hour (counts)” value worked out at 2 counts and the “Second hour (counts)” value was found to be 9 counts.
Turning to CYHDTYPNC, in the assay on day 7 skin wounds, the Total counts is 28 counts, the “First hour (counts)” value is 14 counts and the “Second hour (counts)” value is listed as 14 counts.
With CYWEDKNLC, in the assay on day 7 skin wounds, the Total counts was determined as 15 counts, the “First hour (counts)” value is on record as 6 counts and the “Second hour (counts)” value was found to be 9 counts.
